# “And” between values parts separate entries of the source, which are not always exact repeats. Equal entries are not always repeated.
# How the values were obtained:
# [1] = tested on: MX-1 (human mammary carcinoma); assay: Antiproliferative activity, MX-1; assay type: cell-based; conditions: 72 h treatment, cell counting, mean±s.d., three experiments
# Procedure: (§1) Drugs were dissolved in DMSO and freshly diluted in medium before use. The antiproliferative activity was evaluated on A2780 (human ovarian carcinoma) and its derived drug-resistant cell lines (A2780/DX, A2780/DDP), IGROV-1/Pt1 (human ovarian carcinoma), GBM (human glioblastoma) and MX-1 (human mammary carcinoma). All cell lines, except MX-1, were maintained in RPMI 1640 (Bio-Whittaker, Verviers, Belgium) supplemented with 10% fetal calf serum (Life Technologies, Gaithersburg, MD, USA). MX-1 cells were maintained in McCoy's medium (Life Technologies, Gaithersburg, MD, USA) supplemented with 10% fetal calf serum. For experiments, all cell lines were seeded into six-well plates in duplicate and treated, 24 or 72 h (only MX-1 cells) after seeding, with solvent or different concentrations of taxanes. Adherent cells were counted 72 h after the beginning of treatment, by a cell counter (Coulter Electronics, Luton, UK) or detected by the Sulforhodamine B colorimetric assay (only GBM cells). The IC50 was defined as the drug concentration causing a 50% decrease in cell number over that of untreated controls.
# human tumour cell lines = assay type: cell-based
# Procedure: as §1
# bFGF = bFGF expression in GBM cells, immunoblotting; conditions: 72 h at IC80: IDN 5390 40, PTX 17 ng ml^−1
# tubulin = assay: Tubulin polymerisation assay in IGROV-1/Pt1 cells; assay type: cell-based, human; conditions: 24 h
# Procedure: For tubulin polymerisation assay, IGROV-1/Pt1 cells were treated with PTX or IDN 5390 at the indicated concentrations for 24 h. Cells were then processed as previously described ([Cassinelli et al, 2001]) in order to separate cellular fractions containing soluble cytosolic or polymerised cytoskeletal tubulin. Samples were electrophoresed by sodium dodecyl sulphate (SDS)–PAGE (10% resolving gel and 3% stacking gel) and blotted onto nitrocellulose membranes. The distribution of tubulin was analysed by immunoblotting, using a rabbit polyclonal antitubulin antibody (BioMakor, Revohot, Israel).
# [2] = tested on: INT.ACP/PTX PTX-resistant ovarian tumour xenograft; assay: Antitumour activity on INT.ACP/PTX xenograft; conditions: p.o.
# Procedure: All the experiments were carried out using female athymic nude CD-1 mice, 8–11 weeks old (Charles River, Calco, Italy). The mice were maintained in laminar flow rooms with constant temperature and humidity.
# Taxanes were dissolved by adding absolute ethanol and Cremophor ELP (both 5% of the final volume), in that sequence, on a magnetic stirrer. […] After dilution, the drug solutions were always kept on ice. […] (Milano, Italy) and, just before use, it was diluted, by slowly adding 0.9% NaCl and occasionally stirring the solution (final Polysorbate 80: 10%, v v^−1). […] When higher doses were to be given, larger volumes were injected.
# Tumour lines were maintained in vivo by successive s.c. transplants of tumour fragments in animal flanks.
# For chemotherapy experiments, tumour fragments (about 2 × 2 × 2 mm), obtained from tumour lines, were implanted s.c. Each control or drug-treated group included five or six mice bearing bilateral s.c. tumours. Tumours were implanted on day 0, and tumour growth was followed by biweekly measurements of tumour diameters with a vernier caliper. Tumour weight (TW) was calculated according to the formula: TW (mg)=tumour volume (mm^3)=d^2 × D/2, where d and D are the shortest and the longest diameter, respectively. Different treatment routes (i.v., s.c. or p.o.) and schedules (daily or intermittent) were investigated. […] Control mice were injected with the solvent solution.
# Experimental groups were eliminated when mean TW was about 1.5±0.5 g, or after 100 days.
# For statistical analysis, tumour weights in different groups of treated mice were compared on day of TWI% evaluation, by Student's t-test (two-tailed). P⩽0.05 was considered significant.
# The tolerability of the compound was assessed in tumour-bearing mice as follows: (a) lethal toxicity, that is, any death in treated mice without or with small (⩽300 mg) tumours, or occurring before any control death; (b) body weight loss % (BWL%)=100–(BW on day x/BW on day 1 × 100), where x represents a day after or during the treatment period. The maximal BWL values are reported; and (c) vesicant toxicity defined as the appearance of ulcers and/or inflammation at the injection site where the drugs were delivered s.c.
# [3] = tested on: A2780 (human ovarian carcinoma); assay: Antiproliferative activity, A2780; assay type: cell-based; conditions: 72 h treatment, cell counting, mean±s.d., three experiments
# Procedure: as §1
# A2780/DX cells = assay: Antiproliferative activity, A2780/DX; assay type: cell-based; conditions: Homo sapiens, 72 h treatment, cell counting, MDR phenotype mediated by P-gp
# Procedure: as §1
# [4] = qd × 5/w × 2w, 2 × 120 mg kg^−1
smiles,measurement,setting,value
"CC(=O)O[C@@]1([C@@H]2/C(C)=C(/O)C(=O)C3=C(C)[C@@H](OC(=O)[C@H](O)[C@H](CC(C)C)NC(=O)OC(C)(C)C)C[C@@](O)([C@H]2OC(=O)c2ccccc2)C3(C)C)CO[C@@H]1CCO [IDN 5390, 13-(N-Boc-β-isobutylisoserinyl)-10β-dehydro-C-seco-10-deacetylbaccatin III]",IC50,[1],0.0345 ± 0.0078 µg/mL
same,reduction of cytotoxicity as compared to PTX,human tumour cell lines,2–3 fold
same,bFGF expression,bFGF,downregulated
same,tubulin polymerisation,"tubulin; equitoxic concentrations (IC80): IDN 5390 300, PTX 100 ng ml^−1",comparable extent of tubulin polymerisation
same,tubulin polymerisation,"tubulin; same concentration (100 ng ml^−1), vs PTX",less effective than the parent drug
same,LCK (1 g),"[2]; qd × 5/w × 2w, 180 mg kg^−1",1.9
same,Max BWL (%),"[2]; qd × 5/w × 2w, 180 mg kg^−1",10%
same,Tox/Tot,"[2]; qd × 5/w × 2w, 180 mg kg^−1",2/5
same,TWI% (day 27),"[2]; qd × 5/w × 2w, 180 mg kg^−1, P<0.05 vs 2 × 90 mg kg^−1",96% and 96 ^* %
same,LCK (1 g),[2]; [4],1.4
same,Max BWL (%),[2]; [4],15%
same,TWI% (day 27),[2]; [4],87%
same,Tox/Tot,[2]; [4],1/5
same,LCK (1 g),"[2]; qd × 5/w × 3w, 2 × 90 mg kg^−1",0.8
same,Max BWL (%),"[2]; qd × 5/w × 3w, 2 × 90 mg kg^−1",9%
same,TWI% (day 27),"[2]; qd × 5/w × 3w, 2 × 90 mg kg^−1",66%
same,Tox/Tot,"[2]; qd × 5/w × 3w, 2 × 90 mg kg^−1",0/6
same,IC50,[3],0.023 ± 0.0004 µg/mL
same,IC50,A2780/DX cells,0.334 µg/mL

# Reference: article PMC2377083, “IDN 5390: an oral taxane candidate for protracted treatment schedules” (British Journal of Cancer, 2003)
